Results as given in patent US11505548B2, “Heterocyclic compounds and their use for treatment of helminthic infections and diseases” (Celgene Corporation, priority 2019, dated 2022).

Tested on: microfilariae of Dirofilaria immitis
Assay: Dirofilaria immitis, Microfilaria (DiMF) Assay
Type: cell-based
Conditions: read-out: D. immitis activity level (IC50 or MED)
Method in brief: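 D. immitis microfilariae were incubated in medium with DMSO-diluted compounds for about 72 h. Survival or paralysis was scored subjectively under the microscope. Values are Minimum Effective Dose (MED).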

| SMILES | IC50 [µM] |
| --- | --- |
| FC(F)(F)c1ccc(Nc2nc(-c3cc(OC4CCCCC4)ccn3)ns2)nc1 [Compound 213, 3-(4-(cyclo-hexyloxy)pyridin-2-yl)-N-(5-(trifluoromethyl)pyridin-2-yl)-1,2,4-thiadiazol-5-amine] | < 0.2 |
| CC(C)Oc1cccnc1-c1nsc(Nc2cc(N3CCCC3)ccn2)n1 [Compound 94, 3-(3-isopropoxy-pyridin-2-yl)-N-(4-(pyrrolidin-1-yl)pyridin-2-yl)-1,2,4-thiadiazol-5-amine] | 0.5 to 5 |
| COc1ccnc(-c2nsc(Nc3cc(C(F)(F)F)c(C(C)C)cn3)n2)c1 [Compound 182, N-(5-iso-propyl-4-(trifluoro-methyl)pyridin-2-yl)-3-(4-methoxy-pyridin-2-yl)-1,2,4-thiadiazol-5-amine] | < 0.2 |
